Laboratory results from PubChem BioAssay (NCI).
Where “and” joins values, the source holds several entries; their conditions need not be identical. Equal entries are not always repeated.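 Compound exposure: 48 hours, 5 concentrations, 96-well plates. The concentration for 50% growth inhibition is given as GI50. The concentration for full growth arrest is given as TGI.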

Assays:
Experiment in all cases: NCI-60 cell line screen, 48 h
HCC-2998 colon = system: HCC-2998 colon
SK-OV-3 ovarian = system: SK-OV-3 ovarian
M19-MEL melanoma = system: M19-MEL melanoma
SNB-19 CNS = system: SNB-19 CNS
HCT-116 colon = system: HCT-116 colon
UACC-62 melanoma = system: UACC-62 melanoma
SF-268 CNS = system: SF-268 CNS
KM12 colon = system: KM12 colon
DMS 114 small cell lung = system: DMS 114 small cell lung
OVCAR-4 ovarian = system: OVCAR-4 ovarian
OVCAR-5 ovarian = system: OVCAR-5 ovarian
OVCAR-3 ovarian = system: OVCAR-3 ovarian
HT29 colon = system: HT29 colon
TK-10 renal = system: TK-10 renal
SK-MEL-5 melanoma = system: SK-MEL-5 melanoma
CAKI-1 renal = system: CAKI-1 renal
HCT-15 colon = system: HCT-15 colon
U251 CNS = system: U251 CNS
COLO 205 colon = system: COLO 205 colon
SF-295 CNS = system: SF-295 CNS
EKVX NSCLC = system: EKVX NSCLC
NCI-H522 lung = system: NCI-H522 lung
SN12C renal = system: SN12C renal
ACHN renal = system: ACHN renal
HOP-62 NSCLC = system: HOP-62 NSCLC
KM20L2 colon = system: KM20L2 colon
OVCAR-8 ovarian = system: OVCAR-8 ovarian
SNB-75 CNS = system: SNB-75 CNS
CCRF-CEM leukemia = system: CCRF-CEM leukemia
HOP-18 NSCLC = system: HOP-18 NSCLC
SK-MEL-2 melanoma = system: SK-MEL-2 melanoma
MOLT-4 leukemia = system: MOLT-4 leukemia
A549 NSCLC = system: A549 NSCLC
SK-MEL-28 melanoma = system: SK-MEL-28 melanoma
RPMI-8226 leukemia = system: RPMI-8226 leukemia
RXF 393 renal = system: RXF 393 renal
LOX IMVI melanoma = system: LOX IMVI melanoma
M14 melanoma = system: M14 melanoma
SF-539 CNS = system: SF-539 CNS
MALME-3M melanoma = system: MALME-3M melanoma
UACC-257 melanoma = system: UACC-257 melanoma
XF 498 CNS = system: XF 498 CNS
LXFL 529 NSCLC = system: LXFL 529 NSCLC
NCI-H226 lung = system: NCI-H226 lung
SW-620 colon = system: SW-620 colon
NCI-H460 lung = system: NCI-H460 lung
A498 renal = system: A498 renal
UO-31 renal = system: UO-31 renal
K-562 leukemia = system: K-562 leukemia
786-0 renal = system: 786-0 renal
IGROV1 ovarian = system: IGROV1 ovarian
DLD-1 colon = system: DLD-1 colon
SR leukemia = system: SR leukemia
HL-60(TB) leukemia = system: HL-60(TB) leukemia
NCI-H23 lung = system: NCI-H23 lung
SNB-78 CNS = system: SNB-78 CNS
DMS 273 small cell lung = system: DMS 273 small cell lung
HOP-92 NSCLC = system: HOP-92 NSCLC
HS 578T breast = system: HS 578T breast

Cc1cc(Br)ccc1NC1=CC(=O)C(=O)c2ccccc21
TGI (HCC-2998 colon): > 100 µM
TGI (SK-OV-3 ovarian): > 100 µM
TGI (M19-MEL melanoma): 29.5 µM
TGI (SNB-19 CNS): > 100 µM
TGI (HCT-116 colon): > 100 µM
TGI (UACC-62 melanoma): 36.1 µM
TGI (SF-268 CNS): > 100 µM
TGI (KM12 colon): > 100 µM
TGI (DMS 114 small cell lung): 45 µM
TGI (OVCAR-4 ovarian): 31.1 µM
TGI (OVCAR-5 ovarian): > 100 µM
TGI (OVCAR-3 ovarian): > 100 µM
TGI (HT29 colon): > 100 µM
TGI (TK-10 renal): > 100 µM
TGI (SK-MEL-5 melanoma): 36.8 µM
TGI (CAKI-1 renal): 53.1 µM
TGI (HCT-15 colon): > 100 µM
TGI (U251 CNS): > 100 µM
TGI (COLO 205 colon): > 100 µM
TGI (SF-295 CNS): > 100 µM
TGI (EKVX NSCLC): > 100 µM
TGI (NCI-H522 lung): > 100 µM
TGI (SN12C renal): > 100 µM
TGI (ACHN renal): > 100 µM
TGI (HOP-62 NSCLC): > 100 µM
TGI (KM20L2 colon): > 100 µM
TGI (OVCAR-8 ovarian): > 100 µM
TGI (SNB-75 CNS): > 100 µM
TGI (CCRF-CEM leukemia): > 100 µM
TGI (HOP-18 NSCLC): 57.1 µM
TGI (SK-MEL-2 melanoma): > 100 µM
TGI (MOLT-4 leukemia): > 100 µM
TGI (A549 NSCLC): > 100 µM
TGI (SK-MEL-28 melanoma): > 100 µM
TGI (RPMI-8226 leukemia): > 100 µM
TGI (RXF 393 renal): 69.6 µM
TGI (LOX IMVI melanoma): 48.5 µM
TGI (M14 melanoma): > 100 µM
TGI (SF-539 CNS): > 100 µM
TGI (MALME-3M melanoma): 53 µM
TGI (UACC-257 melanoma): 39.4 µM
TGI (XF 498 CNS): 89.1 µM
TGI (LXFL 529 NSCLC): > 100 µM
TGI (NCI-H226 lung): > 100 µM
TGI (SW-620 colon): 89.1 µM
TGI (NCI-H460 lung): 78.2 µM
TGI (A498 renal): > 100 µM
TGI (UO-31 renal): > 100 µM
TGI (K-562 leukemia): > 100 µM
TGI (786-0 renal): > 100 µM
TGI (IGROV1 ovarian): > 100 µM
TGI (DLD-1 colon): > 100 µM
TGI (SR leukemia): > 100 µM
TGI (HL-60(TB) leukemia): 38.5 µM
TGI (NCI-H23 lung): 32.4 µM
TGI (SNB-78 CNS): > 100 µM
TGI (DMS 273 small cell lung): > 100 µM

CCN(CC)CCCNc1ccc2ncn3c4ccc(O)cc4c(=O)c1c23
GI50 (HCC-2998 colon): 3.59 µM
TGI (HCC-2998 colon): 17.8 µM
GI50 (SK-OV-3 ovarian): 0.369 µM
TGI (SK-OV-3 ovarian): 17.8 µM
TGI (M19-MEL melanoma): 21.3 µM
GI50 (SNB-19 CNS): 0.493 µM
TGI (SNB-19 CNS): 20.2 µM
GI50 (HCT-116 colon): 0.359 µM
TGI (HCT-116 colon): 9.75 µM and 14.1 µM
GI50 (SF-268 CNS): 2.66 µM
TGI (SF-268 CNS): 17.5 µM
GI50 (KM12 colon): 2.6 µM
TGI (KM12 colon): 19.5 µM
TGI (DMS 114 small cell lung): 23.8 µM
TGI (OVCAR-4 ovarian): 11.9 µM
GI50 (OVCAR-5 ovarian): 4.39 µM
TGI (OVCAR-5 ovarian): 10.7 µM
TGI (OVCAR-3 ovarian): 22.2 µM
GI50 (HT29 colon): 2.32 µM
TGI (HT29 colon): 7.78 µM
GI50 (HOP-92 NSCLC): 1.28 µM
TGI (HOP-92 NSCLC): 7.57 µM and 12.5 µM
GI50 (TK-10 renal): 2.23 µM
TGI (TK-10 renal): 21.2 µM
TGI (SK-MEL-5 melanoma): 18.3 µM
GI50 (CAKI-1 renal): 0.205 µM
TGI (CAKI-1 renal): 2.48 µM and 2.36 µM
GI50 (HCT-15 colon): 2.03 µM
TGI (HCT-15 colon): 15.7 µM
GI50 (U251 CNS): 2.05 µM
TGI (U251 CNS): 17.7 µM
TGI (COLO 205 colon): 19.4 µM
GI50 (SF-295 CNS): 1.83 µM
TGI (SF-295 CNS): 15.9 µM
GI50 (EKVX NSCLC): 5.51 µM
TGI (EKVX NSCLC): 19 µM
GI50 (NCI-H522 lung): 0.218 µM
TGI (NCI-H522 lung): 4.44 µM and 4.68 µM
GI50 (SN12C renal): 2.78 µM
TGI (SN12C renal): 14.7 µM
GI50 (ACHN renal): 0.389 µM
TGI (ACHN renal): 3.78 µM
GI50 (HOP-62 NSCLC): 1.25 µM
TGI (HOP-62 NSCLC): 19.2 µM
TGI (KM20L2 colon): 18.2 µM
GI50 (OVCAR-8 ovarian): 0.669 µM
TGI (OVCAR-8 ovarian): 13.4 µM
GI50 (SNB-75 CNS): 2.3 µM
TGI (SNB-75 CNS): 8.49 µM and 8.39 µM
TGI (HOP-18 NSCLC): 34.6 µM
TGI (SK-MEL-2 melanoma): 19 µM
TGI (MOLT-4 leukemia): 0.255 µM and 0.52 µM
GI50 (A549 NSCLC): 0.336 µM
TGI (A549 NSCLC): 6.94 µM
TGI (SK-MEL-28 melanoma): 25.2 µM
GI50 (RPMI-8226 leukemia): 1.45 µM
TGI (RPMI-8226 leukemia): 21.8 µM
GI50 (RXF 393 renal): 0.902 µM
TGI (RXF 393 renal): 6.35 µM and 2.69 µM
GI50 (LOX IMVI melanoma): 0.95 µM
TGI (LOX IMVI melanoma): 2.37 µM and 2.56 µM
TGI (HS 578T breast): 7.28 µM
TGI (M14 melanoma): 16 µM
GI50 (SF-539 CNS): 4.51 µM
TGI (SF-539 CNS): 17.2 µM
GI50 (MALME-3M melanoma): 4.17 µM
TGI (MALME-3M melanoma): 19.1 µM
TGI (UACC-257 melanoma): 23.8 µM
TGI (XF 498 CNS): 14.2 µM
TGI (LXFL 529 NSCLC): 18.5 µM
TGI (NCI-H226 lung): 3.5 µM
GI50 (SW-620 colon): 0.832 µM
TGI (SW-620 colon): 15.8 µM
GI50 (NCI-H460 lung): 0.0627 µM
TGI (NCI-H460 lung): 5.78 µM
GI50 (A498 renal): 0.6 µM
TGI (A498 renal): 17.8 µM
GI50 (UO-31 renal): 0.295 µM
TGI (UO-31 renal): 13.4 µM
GI50 (K-562 leukemia): 1.3 µM
TGI (K-562 leukemia): 20.5 µM
GI50 (786-0 renal): 0.802 µM
TGI (786-0 renal): 14.5 µM
GI50 (IGROV1 ovarian): 0.265 µM
TGI (IGROV1 ovarian): 8.58 µM and 18.6 µM
TGI (DLD-1 colon): 16.1 µM
GI50 (SR leukemia): 0.124 µM
TGI (SR leukemia): 2.86 µM and 1.53 µM
GI50 (HL-60(TB) leukemia): 0.17 µM
TGI (HL-60(TB) leukemia): 4.49 µM and 1.62 µM
GI50 (NCI-H23 lung): 0.784 µM
TGI (NCI-H23 lung): 14.5 µM
TGI (SNB-78 CNS): 28.8 µM
TGI (DMS 273 small cell lung): 14.8 µM
